From ChEMBL document CHEMBL1201862, “PubChem BioAssay data set” (2004)
The source made the active and inactive calls.

What was measured:
[1] = target: T1, Tyrosine-protein phosphatase non-receptor type 11 (Homo sapiens, UniProt Q06124); test: PTPN11 enzyme inhibitors – biochemical, selectivity assay for STEP inhibitor project, dose response (AID 602367); type: functional; details: read-out: IC50_Mean
T1 sequence (Q06124 whole entry): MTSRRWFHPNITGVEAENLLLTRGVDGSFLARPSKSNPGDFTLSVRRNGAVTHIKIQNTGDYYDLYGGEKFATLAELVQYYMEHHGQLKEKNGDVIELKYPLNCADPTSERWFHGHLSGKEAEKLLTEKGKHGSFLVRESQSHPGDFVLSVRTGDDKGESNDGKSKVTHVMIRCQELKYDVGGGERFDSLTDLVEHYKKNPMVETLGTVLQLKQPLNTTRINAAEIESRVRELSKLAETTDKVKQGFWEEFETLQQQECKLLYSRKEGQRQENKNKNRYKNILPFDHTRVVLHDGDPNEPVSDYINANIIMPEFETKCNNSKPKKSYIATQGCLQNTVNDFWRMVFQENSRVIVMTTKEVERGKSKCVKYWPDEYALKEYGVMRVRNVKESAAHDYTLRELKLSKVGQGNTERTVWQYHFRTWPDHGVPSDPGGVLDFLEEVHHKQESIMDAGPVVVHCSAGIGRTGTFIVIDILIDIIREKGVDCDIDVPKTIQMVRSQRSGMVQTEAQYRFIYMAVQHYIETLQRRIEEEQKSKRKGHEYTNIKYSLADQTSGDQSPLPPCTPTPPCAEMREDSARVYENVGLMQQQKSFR

[2] = target: Dual specificity protein phosphatase 3 (Homo sapiens, UniProt P51452); test: VHR phosphatase inhibition, dose response, selectivity assay for STEP inhibitor project, biochemical (AID 602374); type: functional; details: read-out: IC50_Mean
[3] = target: T2, Tyrosine-protein phosphatase non-receptor type 5 (Homo sapiens, UniProt P54829); test: PTPN5 enzyme inhibition – biochemical, fluorescence intensity, uHTS hits, confirmation (AID 602372); type: functional; details: read-out: IC50_Mean
T2 sequence (P54829 whole entry): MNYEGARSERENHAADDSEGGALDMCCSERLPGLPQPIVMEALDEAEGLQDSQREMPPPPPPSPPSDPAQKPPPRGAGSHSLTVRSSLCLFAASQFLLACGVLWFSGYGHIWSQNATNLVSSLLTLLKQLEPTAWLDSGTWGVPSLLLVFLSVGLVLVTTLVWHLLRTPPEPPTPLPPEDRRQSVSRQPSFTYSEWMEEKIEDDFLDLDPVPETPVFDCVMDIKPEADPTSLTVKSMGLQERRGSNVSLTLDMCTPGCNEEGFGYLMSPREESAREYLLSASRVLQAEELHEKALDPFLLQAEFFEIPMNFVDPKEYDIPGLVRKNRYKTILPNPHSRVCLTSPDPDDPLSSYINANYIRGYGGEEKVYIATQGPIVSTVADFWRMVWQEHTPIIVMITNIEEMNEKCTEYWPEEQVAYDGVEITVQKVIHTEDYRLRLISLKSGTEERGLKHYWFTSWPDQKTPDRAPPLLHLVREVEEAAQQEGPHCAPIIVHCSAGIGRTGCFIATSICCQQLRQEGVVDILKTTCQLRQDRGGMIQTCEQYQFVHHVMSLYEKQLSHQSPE

[4] = target: T3, Carboxy-terminal domain RNA polymerase II polypeptide A small phosphatase 1 (Homo sapiens, UniProt Q9GZU7); test: CTDSP1 inhibitors, concentration-response, biochemical, absorbance readout, ultra-high-throughput screen actives (AID 540297); type: functional
T3 sequence (Q9GZU7 whole entry): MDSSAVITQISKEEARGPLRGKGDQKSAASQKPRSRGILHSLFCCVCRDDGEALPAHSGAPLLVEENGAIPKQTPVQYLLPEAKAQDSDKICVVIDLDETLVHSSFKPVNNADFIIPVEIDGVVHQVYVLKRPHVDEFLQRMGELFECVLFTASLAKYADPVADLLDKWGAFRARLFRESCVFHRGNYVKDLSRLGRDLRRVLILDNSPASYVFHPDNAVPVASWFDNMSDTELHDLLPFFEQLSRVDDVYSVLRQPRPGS

[5] = target: T4, Histone-lysine N-methyltransferase NSD2 (Homo sapiens, UniProt O96028); type: biochemical
T4 sequence (O96028 whole entry): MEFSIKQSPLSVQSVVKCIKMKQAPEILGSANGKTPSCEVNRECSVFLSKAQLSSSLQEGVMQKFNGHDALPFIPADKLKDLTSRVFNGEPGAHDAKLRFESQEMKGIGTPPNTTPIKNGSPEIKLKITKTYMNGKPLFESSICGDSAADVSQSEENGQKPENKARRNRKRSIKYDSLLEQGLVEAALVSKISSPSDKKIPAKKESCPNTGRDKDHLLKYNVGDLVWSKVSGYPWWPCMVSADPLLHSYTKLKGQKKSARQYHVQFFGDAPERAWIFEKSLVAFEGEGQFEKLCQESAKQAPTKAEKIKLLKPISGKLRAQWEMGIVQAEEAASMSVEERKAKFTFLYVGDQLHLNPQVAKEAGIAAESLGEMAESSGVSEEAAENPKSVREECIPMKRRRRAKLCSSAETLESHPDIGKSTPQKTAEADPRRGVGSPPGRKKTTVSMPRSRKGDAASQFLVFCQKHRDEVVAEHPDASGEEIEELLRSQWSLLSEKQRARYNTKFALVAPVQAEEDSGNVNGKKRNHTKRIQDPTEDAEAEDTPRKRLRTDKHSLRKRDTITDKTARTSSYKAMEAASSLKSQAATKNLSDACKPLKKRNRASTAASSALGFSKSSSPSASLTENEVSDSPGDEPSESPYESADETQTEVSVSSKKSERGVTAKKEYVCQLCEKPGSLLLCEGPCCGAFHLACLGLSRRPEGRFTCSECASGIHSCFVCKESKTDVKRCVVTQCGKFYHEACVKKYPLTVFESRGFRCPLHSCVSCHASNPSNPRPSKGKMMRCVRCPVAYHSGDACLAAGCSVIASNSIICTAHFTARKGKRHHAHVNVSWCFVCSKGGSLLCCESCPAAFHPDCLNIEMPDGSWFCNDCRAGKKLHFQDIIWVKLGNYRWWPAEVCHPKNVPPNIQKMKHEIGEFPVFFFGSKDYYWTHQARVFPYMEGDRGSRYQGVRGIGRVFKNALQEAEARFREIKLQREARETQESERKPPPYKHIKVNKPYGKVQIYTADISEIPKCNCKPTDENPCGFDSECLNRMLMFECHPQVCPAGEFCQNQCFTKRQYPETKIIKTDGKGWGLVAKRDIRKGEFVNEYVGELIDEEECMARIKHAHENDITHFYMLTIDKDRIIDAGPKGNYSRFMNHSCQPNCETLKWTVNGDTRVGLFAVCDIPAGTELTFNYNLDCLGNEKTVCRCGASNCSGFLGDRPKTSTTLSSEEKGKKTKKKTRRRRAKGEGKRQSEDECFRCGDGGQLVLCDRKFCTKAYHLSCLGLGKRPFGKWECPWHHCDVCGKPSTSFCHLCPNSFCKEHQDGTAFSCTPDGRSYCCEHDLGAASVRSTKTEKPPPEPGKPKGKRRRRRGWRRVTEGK

[6] = target: Ras and Rab interactor 1/Tyrosine-protein kinase ABL1 (Homo sapiens, UniProt P00519+Q13671); test: biochemical; type: functional;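 also: biochemical TR-FRET dose-response test measuring inhibition of binding between Rin1 and Abl proteins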
[7] = target: Nonstructural protein 1 (Influenza A virus, UniProt Q194T2); type: functional, Influenza A virus (A/California/07/2009(H1N1))
[8] = target: Prothrombin (Bos taurus, UniProt P00735); test: thrombin protease inhibitors – biochemical, fluorescence polarization, uHTS hits, dose response (AID 602369); type: functional
[9] = target: Cytochrome P450 2C19 (Homo sapiens, UniProt P33261); test: Cytochrome panel assay with activity outcomes. Panel member name: p450-cyp2c19 Compounds with AC50 equal or less than 10 uM are considered active; type: functional; details: read-out: AC50
[10] = target: 72 kDa type IV collagenase (Homo sapiens, UniProt P08253); test: Dose Response validation of uHTS RPN11 inhibitor hits using a MMP-2 Fluorescence assay.; type: functional
[11] = target: Cytochrome P450 2C9 (Homo sapiens, UniProt P11712)
[12] = target: 26S proteasome non-ATPase regulatory subunit 14 (Homo sapiens, UniProt O00487); test: inhibition of proteasome subunit RPN11 – biochemical, fluorescence polarization, uHTS hits, confirmation (AID 602368); type: functional
Chain of 26S proteasome non-ATPase regulatory subunit 14 (O00487 whole entry): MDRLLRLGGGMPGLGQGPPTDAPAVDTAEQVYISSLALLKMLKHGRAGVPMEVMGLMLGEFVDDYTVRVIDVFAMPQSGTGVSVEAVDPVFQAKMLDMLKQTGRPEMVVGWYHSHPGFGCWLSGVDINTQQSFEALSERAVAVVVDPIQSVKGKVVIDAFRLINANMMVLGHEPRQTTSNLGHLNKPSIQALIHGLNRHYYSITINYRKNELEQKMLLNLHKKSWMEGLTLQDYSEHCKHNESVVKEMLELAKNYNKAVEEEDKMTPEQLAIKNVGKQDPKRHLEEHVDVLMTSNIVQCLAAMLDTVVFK

Chain of Dual specificity protein phosphatase 3 (P51452 whole entry): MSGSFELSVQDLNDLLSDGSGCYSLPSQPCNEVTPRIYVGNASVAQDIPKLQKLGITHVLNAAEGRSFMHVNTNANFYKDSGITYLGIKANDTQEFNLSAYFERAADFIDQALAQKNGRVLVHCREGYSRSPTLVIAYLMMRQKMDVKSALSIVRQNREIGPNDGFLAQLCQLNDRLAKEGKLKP
Chain of Ras and Rab interactor 1/Tyrosine-protein kinase ABL1 (P00519 whole entry): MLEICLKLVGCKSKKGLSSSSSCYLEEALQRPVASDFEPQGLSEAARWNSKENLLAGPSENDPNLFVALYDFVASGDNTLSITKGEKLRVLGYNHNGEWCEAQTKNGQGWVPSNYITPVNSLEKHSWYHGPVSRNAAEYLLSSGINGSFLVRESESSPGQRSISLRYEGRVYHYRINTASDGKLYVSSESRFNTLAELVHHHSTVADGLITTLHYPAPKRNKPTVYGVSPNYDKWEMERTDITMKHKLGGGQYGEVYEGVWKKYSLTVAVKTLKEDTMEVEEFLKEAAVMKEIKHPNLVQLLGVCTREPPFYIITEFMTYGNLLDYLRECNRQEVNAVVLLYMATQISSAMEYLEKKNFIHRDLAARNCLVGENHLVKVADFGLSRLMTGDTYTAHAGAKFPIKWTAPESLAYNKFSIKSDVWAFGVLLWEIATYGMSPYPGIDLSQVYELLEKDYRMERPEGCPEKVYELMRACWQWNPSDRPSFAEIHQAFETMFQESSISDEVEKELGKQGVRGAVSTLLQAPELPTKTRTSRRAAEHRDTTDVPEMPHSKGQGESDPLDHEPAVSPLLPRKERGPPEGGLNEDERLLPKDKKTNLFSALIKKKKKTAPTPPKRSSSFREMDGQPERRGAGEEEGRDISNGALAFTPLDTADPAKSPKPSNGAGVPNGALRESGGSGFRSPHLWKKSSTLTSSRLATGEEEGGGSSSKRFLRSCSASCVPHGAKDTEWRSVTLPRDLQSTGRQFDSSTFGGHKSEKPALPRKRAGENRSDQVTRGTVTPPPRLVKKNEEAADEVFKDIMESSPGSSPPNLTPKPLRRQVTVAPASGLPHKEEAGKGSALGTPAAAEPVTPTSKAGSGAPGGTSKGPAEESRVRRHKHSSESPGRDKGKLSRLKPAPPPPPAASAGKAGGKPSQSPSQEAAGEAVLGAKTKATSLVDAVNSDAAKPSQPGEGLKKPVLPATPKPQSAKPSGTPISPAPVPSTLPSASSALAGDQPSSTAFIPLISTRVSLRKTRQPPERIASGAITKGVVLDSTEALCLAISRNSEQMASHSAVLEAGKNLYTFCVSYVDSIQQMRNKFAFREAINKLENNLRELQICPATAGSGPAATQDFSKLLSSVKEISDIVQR
Chain of Ras and Rab interactor 1/Tyrosine-protein kinase ABL1 (Q13671 whole entry): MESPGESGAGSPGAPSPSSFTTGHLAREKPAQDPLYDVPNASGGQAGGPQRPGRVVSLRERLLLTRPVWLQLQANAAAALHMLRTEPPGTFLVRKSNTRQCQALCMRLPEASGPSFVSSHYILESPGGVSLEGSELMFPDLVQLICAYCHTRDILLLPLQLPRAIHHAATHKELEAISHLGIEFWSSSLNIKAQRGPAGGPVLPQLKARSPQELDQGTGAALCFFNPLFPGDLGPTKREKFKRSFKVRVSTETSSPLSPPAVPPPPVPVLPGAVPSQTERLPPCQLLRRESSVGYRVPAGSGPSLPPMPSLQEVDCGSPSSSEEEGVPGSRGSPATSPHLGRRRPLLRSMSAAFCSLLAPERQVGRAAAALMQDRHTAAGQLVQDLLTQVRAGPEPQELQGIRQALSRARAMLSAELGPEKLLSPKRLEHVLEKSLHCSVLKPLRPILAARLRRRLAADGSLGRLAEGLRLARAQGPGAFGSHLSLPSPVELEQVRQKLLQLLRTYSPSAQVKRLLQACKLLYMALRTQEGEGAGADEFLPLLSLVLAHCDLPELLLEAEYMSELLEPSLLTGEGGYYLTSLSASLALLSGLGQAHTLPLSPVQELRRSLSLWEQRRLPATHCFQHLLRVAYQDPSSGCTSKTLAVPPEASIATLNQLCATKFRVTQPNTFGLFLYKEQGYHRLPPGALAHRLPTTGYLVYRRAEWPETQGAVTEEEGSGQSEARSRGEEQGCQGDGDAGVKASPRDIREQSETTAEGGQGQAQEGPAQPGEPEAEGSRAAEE
Chain of Cytochrome P450 2C19 (P33261 whole entry): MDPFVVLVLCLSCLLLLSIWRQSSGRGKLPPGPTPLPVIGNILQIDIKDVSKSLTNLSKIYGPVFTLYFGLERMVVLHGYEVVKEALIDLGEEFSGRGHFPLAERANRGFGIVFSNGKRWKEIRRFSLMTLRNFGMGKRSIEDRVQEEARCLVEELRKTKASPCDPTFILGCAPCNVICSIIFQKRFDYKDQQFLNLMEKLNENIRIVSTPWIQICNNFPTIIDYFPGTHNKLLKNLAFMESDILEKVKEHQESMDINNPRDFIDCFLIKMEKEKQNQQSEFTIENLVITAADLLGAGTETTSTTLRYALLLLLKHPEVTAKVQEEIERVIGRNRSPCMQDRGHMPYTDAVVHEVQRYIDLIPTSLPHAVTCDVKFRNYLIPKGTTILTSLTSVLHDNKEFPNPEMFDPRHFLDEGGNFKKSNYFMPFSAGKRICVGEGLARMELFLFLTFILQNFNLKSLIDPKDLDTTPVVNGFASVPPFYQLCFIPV
Chain of 72 kDa type IV collagenase (P08253 whole entry): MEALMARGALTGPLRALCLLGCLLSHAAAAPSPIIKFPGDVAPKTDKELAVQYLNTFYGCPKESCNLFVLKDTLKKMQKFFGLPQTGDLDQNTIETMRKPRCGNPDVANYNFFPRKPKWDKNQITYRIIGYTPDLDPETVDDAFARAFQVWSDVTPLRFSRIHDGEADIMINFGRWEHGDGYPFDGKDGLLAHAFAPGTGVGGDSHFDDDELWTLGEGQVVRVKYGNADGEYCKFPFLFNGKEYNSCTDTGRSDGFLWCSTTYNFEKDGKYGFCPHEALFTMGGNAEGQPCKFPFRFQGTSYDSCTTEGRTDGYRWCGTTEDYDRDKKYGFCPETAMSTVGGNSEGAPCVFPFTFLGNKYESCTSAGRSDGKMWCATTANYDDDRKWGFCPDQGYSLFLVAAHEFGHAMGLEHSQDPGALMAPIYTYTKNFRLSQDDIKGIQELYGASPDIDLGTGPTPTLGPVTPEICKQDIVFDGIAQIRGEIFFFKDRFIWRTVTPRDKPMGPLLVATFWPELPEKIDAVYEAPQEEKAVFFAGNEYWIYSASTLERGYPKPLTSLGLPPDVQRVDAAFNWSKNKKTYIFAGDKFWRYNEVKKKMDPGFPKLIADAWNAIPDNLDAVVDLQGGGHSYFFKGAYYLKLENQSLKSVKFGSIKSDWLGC
Chain of Cytochrome P450 2C9 (P11712 whole entry): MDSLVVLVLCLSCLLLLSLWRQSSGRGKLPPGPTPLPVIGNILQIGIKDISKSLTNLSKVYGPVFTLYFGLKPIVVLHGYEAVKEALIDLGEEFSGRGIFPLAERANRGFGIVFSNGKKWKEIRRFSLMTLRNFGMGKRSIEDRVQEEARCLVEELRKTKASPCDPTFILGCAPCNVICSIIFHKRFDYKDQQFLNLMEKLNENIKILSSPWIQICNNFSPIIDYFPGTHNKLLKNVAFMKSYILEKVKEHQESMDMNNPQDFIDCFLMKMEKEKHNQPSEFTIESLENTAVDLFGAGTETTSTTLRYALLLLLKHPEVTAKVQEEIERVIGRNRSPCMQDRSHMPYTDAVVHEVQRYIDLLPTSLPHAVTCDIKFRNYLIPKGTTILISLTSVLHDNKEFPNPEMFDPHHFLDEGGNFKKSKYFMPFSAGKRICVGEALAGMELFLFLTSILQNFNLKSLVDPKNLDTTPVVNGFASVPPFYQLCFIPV
Chain of Nonstructural protein 1 (Q194T2 whole entry): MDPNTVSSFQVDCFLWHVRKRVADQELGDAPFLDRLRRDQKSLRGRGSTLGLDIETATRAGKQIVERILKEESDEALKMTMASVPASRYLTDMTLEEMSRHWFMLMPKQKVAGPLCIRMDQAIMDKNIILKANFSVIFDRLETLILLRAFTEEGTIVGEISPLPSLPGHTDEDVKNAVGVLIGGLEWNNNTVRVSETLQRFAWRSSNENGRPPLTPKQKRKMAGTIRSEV

CC(C)(C)C(=O)Nc1ccc(C(=O)Nc2cccc(Oc3ccc(C(=O)O)c(C(=O)O)c3)c2)cc1
IC50 [1]: 16.5 µM (active)
IC50 [2]: 38.4 µM (inactive)
IC50 [3]: 13.6 µM (active)

O=C(COc1ccc([N+](=O)[O-])cc1)Nc1nnc(-c2cccnc2)s1
IC50 [4]: 5.51 µM (active)
IC50 [1]: 2.44 µM (active)
IC50 [2]: 4.25 µM (active)
IC50 [3]: 59.9 µM (inactive)

CC1NC(=O)NC1CCCCCC(=O)Nc1ccc(F)cc1 (stereo unspecified)
AC50 [5]: 113 nM (active)
IC50 [6]: 18.7 nM (active)
IC50 [7]: 979 nM (active)

CN(C(=O)c1ccc(NC(=O)Cc2ccc(NC(=O)C3CCN(C(=O)c4ccccc4)CC3)cc2)cc1)C1CC1
IC50 [6]: 407 nM (active)

O=C(NN=C1c2ccccc2-c2ccccc21)c1ccccn1
IC50 [8]: > 100 µM (inactive)
AC50 [9]: 2.82 µM (inconclusive)
IC50 [10]: > 100 µM (inactive)
AC50 [11]: 7.08 µM (inconclusive)
IC50 [12]: 24.4 µM (active)
